Data on nine molecules can be found in publication PMC6211316, “Synthesis and biological evaluation of 3-arylcoumarin derivatives as potential anti-diabetic agents” (Journal of Enzyme Inhibition and Medicinal Chemistry, 2018).

SMILES strings stand for the structures. Where only a bound is given, the exact number is not on record here.

Test system in one data set: not listed separately
The experiment in a line: hydroxyl radical scavenging. As to conditions: mean ± SD (n = 3), read-out: OH IC50 Value. The procedure:
The ability of the target compounds and vitamin C to scavenge the hydroxyl radical was evaluated with method described by Ismaili et al.[29] with slight modifications. In test tube, 1.0 ml H2O2 solution (0.03%), 1.0 ml FeSO4 solution (2 mmol.L^−1), 1.0 ml salicylic acid solution (10 mmol.L^−1) and 1.0 ml of 3-arylcoumarins and standard water solution with different concentration (0.4–2.0 mg/mL) were mixed. Finally, 1.0 ml H2O2 solution (0.03%) was added to this mixture to start the reaction. Solutions were kept at 37 °C. After 30 min, the absorbance was measured at 510 nm against the reagent blank, where the distilled water was substituted for the H2O2 solution. The percentage of OH scavenging by target compounds and vitamin C was calculated the following equation: OH scavenging effect (%)=[A0−(A1−A2)]/A0×100% where A0 is the absorbance of 1.0 ml distilled water +1.0 ml H2O2 + 1.0 ml FeSO4 + 1.0 ml salicylic acid +1.0 ml H2O2; A1 is the absorbance of 1.0 ml 3-arylcoumarins or standard +1.0 ml H2O2 + 1.0 ml FeSO4 + 1.0 ml salicylic acid +1.0 ml H2O2; A2 is the absorbance of 1.0 ml 3-arylcoumarins or standard +1.0 ml H2O2 + 1.0 ml FeSO4 + 1.0 ml absolute absolute ethanol +1.0 ml H2O2.
`O=c1oc2cc(O)cc(O)c2cc1-c1ccc(F)cc1` [Compound 31, 5,7-Dihydroxy-3-(4-fluorophenyl)-coumarin]: the IC50 is over 1000 µM.
As for `O=c1oc2ccccc2cc1-c1ccc(F)cc1` [Compound 7, 3-(4-Fluorophenyl)-coumarin], the IC50 is over 1000 µM.
Still for that read-out and setting: then `COc1ccc(-c2cc3ccc(O)c(O)c3oc2=O)cc1OC` [Compound 43, 7,8-Dihydroxy-3-(3,4-dimethoxyphenyl)-coumarin], with 887 ± 15.8 µM; and `Cc1ccc(-c2cc3cccc(O)c3oc2=O)cc1` [Compound 8, 8-Hydroxy-3-(4-methylphenyl)-coumarin], with over 1000 µM.
Same read-out and setting: the value for `COc1ccc2oc(=O)c(-c3ccc(O)cc3)cc2c1` [Compound 27, 6-Methoxy-3-(4-hydroxyphenyl)-coumarin] was over 1000 µM.
Take `O=c1oc2cc(O)ccc2cc1-c1ccccc1O` [Compound 16, 7-Hydroxy-3-(2-hydroxyphenyl)-coumarin]: the IC50 was over 1000 µM.
Same read-out and setting: then `COc1ccc(-c2cc3cccc(O)c3oc2=O)cc1OC` [Compound 38, 8-Hydroxy-3-(3,4-dimethoxyphenyl)-coumarin], with over 1000 µM; and `O=c1oc2cc(O)ccc2cc1-c1ccc(O)c(O)c1` [Compound 29, 7-Hydroxy-3-(3,4-dihydroxyphenyl)-coumarin], with 982 ± 30 µM; and `O=c1oc2c(O)cccc2cc1-c1ccc(F)cc1` [Compound 19, 8-Hydroxy-3-(4-fluorophenyl)-coumarin], with over 1000 µM.

The target of a further data set is T1, α-Glucosidase (Saccharomyces cerevisiae, UniProt P53341).
T1 construct: purchased Sigma Aldrich G0660-750UN
T1 sequence (P53341 whole entry): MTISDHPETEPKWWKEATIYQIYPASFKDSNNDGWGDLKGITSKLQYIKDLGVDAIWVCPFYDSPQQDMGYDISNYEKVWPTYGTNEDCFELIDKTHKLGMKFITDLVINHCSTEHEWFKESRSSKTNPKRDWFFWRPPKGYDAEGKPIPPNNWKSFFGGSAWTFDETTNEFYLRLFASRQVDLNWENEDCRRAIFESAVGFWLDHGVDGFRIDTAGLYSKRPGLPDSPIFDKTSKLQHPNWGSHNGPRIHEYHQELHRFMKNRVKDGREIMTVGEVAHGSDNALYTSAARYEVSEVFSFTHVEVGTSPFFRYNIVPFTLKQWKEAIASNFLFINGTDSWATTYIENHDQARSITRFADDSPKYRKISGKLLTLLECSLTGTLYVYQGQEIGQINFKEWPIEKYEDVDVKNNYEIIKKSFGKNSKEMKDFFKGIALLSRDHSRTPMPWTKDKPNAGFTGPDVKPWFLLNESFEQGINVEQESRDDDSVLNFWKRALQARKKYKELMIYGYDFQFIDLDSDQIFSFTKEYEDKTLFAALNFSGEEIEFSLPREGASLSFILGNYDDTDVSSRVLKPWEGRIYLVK
Put plainly: biochemical.
Details: not given
It is filed as biochemical. The procedure: α-Glucosidase (G0660-750UN, Sigma Aldrich) and 4-Nitrophenyl α-D-glucopyranoside (PNPG, Macklin) were dissolved in phosphate buffer (pH 6.8, 100 mM), and the test compounds were dissolved in DMSO solution. The experiment was divided into blank group, control group, sample blank group, and sample group. The reagents were loaded in 96-well plates at the dose of the table (Table 8). The solution was bathed in 37 °C water for 10 min, and then enzyme solution was added. After reaction at 37 °C for 20 min, 70 μL Na2CO3 solution ([…]) was added to stop the reaction. All experiments were run in triplicate. […] Since PNPG can produce glucose and p-Nitrophenol (PNP) under the action of α-glucosidase, PNP has the greatest absorption at 405 nm. The absorbance was determined by the microplate reader, and the inhibition rate of α-glucosidase and the IC50 value of each sample were calculated according to the formula. Inhibition rate %={[(AC−AB)−(AS−ASB)]/(AC−AB)}×100% where AC is the absorbance of control group; AB is the absorbance of blank group; AS is the absorbance of sample group; ASB is the absorbance of sample blank group.
On to `O=c1oc2cc(O)cc(O)c2cc1-c1ccc(F)cc1` [Compound 31, 5,7-Dihydroxy-3-(4-fluorophenyl)-coumarin], for which the IC50 was 19.1 ± 0.26 µM.
The same measure, in the same setting: then `O=c1oc2ccccc2cc1-c1ccc(F)cc1` [Compound 7, 3-(4-Fluorophenyl)-coumarin], with over 1000 µM; and `COc1ccc(-c2cc3ccc(O)c(O)c3oc2=O)cc1OC` [Compound 43, 7,8-Dihydroxy-3-(3,4-dimethoxyphenyl)-coumarin], with over 1000 µM; and `Cc1ccc(-c2cc3cccc(O)c3oc2=O)cc1` [Compound 8, 8-Hydroxy-3-(4-methylphenyl)-coumarin], with 69.6 ± 5.32 µM.
The same measure, in the same setting: the value for `COc1ccc2oc(=O)c(-c3ccc(O)cc3)cc2c1` [Compound 27, 6-Methoxy-3-(4-hydroxyphenyl)-coumarin] was 70.3 ± 2.95 µM; that for `O=c1oc2cc(O)ccc2cc1-c1ccccc1O` [Compound 16, 7-Hydroxy-3-(2-hydroxyphenyl)-coumarin] was 10.2 ± 0.75 µM; that for `COc1ccc(-c2cc3cccc(O)c3oc2=O)cc1OC` [Compound 38, 8-Hydroxy-3-(3,4-dimethoxyphenyl)-coumarin] was 20.2 ± 0.44 µM.
The same measure, in the same setting: the value for `O=c1oc2cc(O)ccc2cc1-c1ccc(O)c(O)c1` [Compound 29, 7-Hydroxy-3-(3,4-dihydroxyphenyl)-coumarin] was 29.9 ± 5.15 µM; that for `O=c1oc2c(O)cccc2cc1-c1ccc(F)cc1` [Compound 19, 8-Hydroxy-3-(4-fluorophenyl)-coumarin] was over 1000 µM.

The same data set, now with this note: in vitro.
As to `O=c1oc2cc(O)ccc2cc1-c1ccccc1O` [Compound 16, 7-Hydroxy-3-(2-hydroxyphenyl)-coumarin], the “α-glucosidase inhibitory activity (in words)” value is listed as “moderate to excellent inhibitory activity”.

Test system in a further data set: not given
Test: not given
Details: not given
On to `O=c1oc2cc(O)cc(O)c2cc1-c1ccc(F)cc1` [Compound 31, 5,7-Dihydroxy-3-(4-fluorophenyl)-coumarin], for which the melting point lay within 267 to 267.6 °C.
Same read-out and setting: the value for `O=c1oc2ccccc2cc1-c1ccc(F)cc1` [Compound 7, 3-(4-Fluorophenyl)-coumarin] was 196.7 to 197.7 °C.
For the molecule `COc1ccc(-c2cc3ccc(O)c(O)c3oc2=O)cc1OC` [Compound 43, 7,8-Dihydroxy-3-(3,4-dimethoxyphenyl)-coumarin], the melting point lay within 290.5 to 291.9 °C.
The same measure, in the same setting: then `Cc1ccc(-c2cc3cccc(O)c3oc2=O)cc1` [Compound 8, 8-Hydroxy-3-(4-methylphenyl)-coumarin], with 211.7 to 212.5 °C.
The same measure, in the same setting: the value for `COc1ccc2oc(=O)c(-c3ccc(O)cc3)cc2c1` [Compound 27, 6-Methoxy-3-(4-hydroxyphenyl)-coumarin] was 195.6 to 197.2 °C; that for `O=c1oc2cc(O)ccc2cc1-c1ccccc1O` [Compound 16, 7-Hydroxy-3-(2-hydroxyphenyl)-coumarin] was 200.3 to 202.3 °C; that for `COc1ccc(-c2cc3cccc(O)c3oc2=O)cc1OC` [Compound 38, 8-Hydroxy-3-(3,4-dimethoxyphenyl)-coumarin] was 162.8 to 163.8 °C.
`O=c1oc2cc(O)ccc2cc1-c1ccc(O)c(O)c1` [Compound 29, 7-Hydroxy-3-(3,4-dihydroxyphenyl)-coumarin] returned a melting point of 306 to 307.8 °C.
With `O=c1oc2c(O)cccc2cc1-c1ccc(F)cc1` [Compound 19, 8-Hydroxy-3-(4-fluorophenyl)-coumarin], the melting point is 201.3 to 203.1 °C.

The subject of another data set is AGEs formation. The experiment in a line: In vitro inhibitory activity of AGEs formation (bovine serum albumin/glucose). It is filed as biochemical. As to conditions: mean ± SD (n = 3). The procedure:
To prepare the AGEs reaction solution, 10 mg/mL of bovine serum albumin in 50 mM PBS (pH 7.4) was added to 0.2 M glucose, and 0.02% sodium azide was added to prevent bacterial growth. The reaction mixture (3.0 ml) was then mixed with various concentrations (0.5–1000 μg/mL) of the target compounds (1.0 ml) dissolved in DMSO. After incubating at 37 °C for 14 d, the fluorescence intensity of AGE was determined by a fluorospectrophotometer (PE, USA) with excitation and emission wavelengths at 350 nm and 420 nm, respectively. All experiments were run in triplicate. Aminoguanidine hydrochloride was used as a reference compound. The inhibition rate of AGEs formation and the IC50 value of each sample were calculated according to the formula. Inhibition rate %={[(AC−AB)−(AS−ASB)]/(AC−AB)}×100% where AC is the absorbance of control group(1.0 ml glucose +1.0 ml bovine serum albumin +1.0 ml sodium azide +1.0 ml DMSO); AB is the absorbance of blank group(1.0 ml PBS +1.0 ml bovine serum albumin +1.0 ml sodium azide +1.0 ml DMSO); AS is the absorbance of sample group (1.0 ml glucose +1.0 ml bovine serum albumin +1.0 ml sodium azide +1.0 ml target compound solution or Aminoguanidine hydrochloride solution); ASB is the absorbance of sample blank group (1.0 ml PBS +1.0 ml bovine serum albumin +1.0 ml sodium azide +1.0 ml target compound solution or Aminoguanidine hydrochloride solution).
`O=c1oc2ccccc2cc1-c1ccc(F)cc1` [Compound 7, 3-(4-Fluorophenyl)-coumarin] registered an IC50 of over 1000 µM.
On the same count and under the same terms, then `COc1ccc(-c2cc3ccc(O)c(O)c3oc2=O)cc1OC` [Compound 43, 7,8-Dihydroxy-3-(3,4-dimethoxyphenyl)-coumarin], with 25.2 ± 1.72 µM; and `Cc1ccc(-c2cc3cccc(O)c3oc2=O)cc1` [Compound 8, 8-Hydroxy-3-(4-methylphenyl)-coumarin], with 31.9 ± 2.02 µM; and `COc1ccc2oc(=O)c(-c3ccc(O)cc3)cc2c1` [Compound 27, 6-Methoxy-3-(4-hydroxyphenyl)-coumarin], with 64.5 ± 0.78 µM.
Molecule `O=c1oc2cc(O)ccc2cc1-c1ccccc1O` [Compound 16, 7-Hydroxy-3-(2-hydroxyphenyl)-coumarin] registered an IC50 of 20.47 ± 0.2 µM.
The same measure, in the same setting: then `COc1ccc(-c2cc3cccc(O)c3oc2=O)cc1OC` [Compound 38, 8-Hydroxy-3-(3,4-dimethoxyphenyl)-coumarin], with 22.3 ± 1.34 µM; and `O=c1oc2cc(O)ccc2cc1-c1ccc(O)c(O)c1` [Compound 29, 7-Hydroxy-3-(3,4-dihydroxyphenyl)-coumarin], with 7.48 ± 0.59 µM; and `O=c1oc2c(O)cccc2cc1-c1ccc(F)cc1` [Compound 19, 8-Hydroxy-3-(4-fluorophenyl)-coumarin], with 34.7 ± 1.84 µM.

Test system in a further data set: not listed separately
Put plainly: DPPH free radical scavenging. Conditions: mean ± SD (n = 3). As to the method:
The effect of target compounds and vitamin C to scavenge the DPPH free radical was evaluated with the method described by Villano et al.[43] with slight modifications.
Two millilitres of different concentrations of the sample solution was added to 2.0 ml of DPPH solution (0.04 mg/mL), shaken and allowed to react at room temperature for 30 min. The absorbance value was measured at 517 nm with an ultraviolet-visible spectrophotometer. The blank reference cuvette contained absolute ethanol. All measurements were performed in triplicate. IC50 values were calculated. The percentage of DPPH radical scavenging rate of the target compound is calculated as follows: DPPH free radical scavenging effect (%)=[A0−(A1−A2)]/A0×100% where A0 is the absorbance of 2.0 ml DPPH solution +2.0 ml absolute ethanol; A1 is the absorbance of 2.0 ml DPPH solution +2.0 ml 3-arylcoumarins solution or standard; A2 is the absorbance of 2.0 ml 3-arylcoumarins solution or standard +2.0 ml absolute ethanol.
`O=c1oc2cc(O)cc(O)c2cc1-c1ccc(F)cc1` [Compound 31, 5,7-Dihydroxy-3-(4-fluorophenyl)-coumarin] yielded a half-inhibitory concentration (IC50) of 595 ± 11.3 µM.
Still for that read-out and setting: then `O=c1oc2ccccc2cc1-c1ccc(F)cc1` [Compound 7, 3-(4-Fluorophenyl)-coumarin], with over 1000 µM; and `COc1ccc(-c2cc3ccc(O)c(O)c3oc2=O)cc1OC` [Compound 43, 7,8-Dihydroxy-3-(3,4-dimethoxyphenyl)-coumarin], with 4.24 ± 0.06 µM; and `Cc1ccc(-c2cc3cccc(O)c3oc2=O)cc1` [Compound 8, 8-Hydroxy-3-(4-methylphenyl)-coumarin], with over 1000 µM.
The same measure, in the same setting: the value for `COc1ccc2oc(=O)c(-c3ccc(O)cc3)cc2c1` [Compound 27, 6-Methoxy-3-(4-hydroxyphenyl)-coumarin] was 42 ± 0.97 µM; that for `O=c1oc2cc(O)ccc2cc1-c1ccccc1O` [Compound 16, 7-Hydroxy-3-(2-hydroxyphenyl)-coumarin] was over 1000 µM; that for `COc1ccc(-c2cc3cccc(O)c3oc2=O)cc1OC` [Compound 38, 8-Hydroxy-3-(3,4-dimethoxyphenyl)-coumarin] was 16.3 ± 0.44 µM.
The same measure, in the same setting: the value for `O=c1oc2cc(O)ccc2cc1-c1ccc(O)c(O)c1` [Compound 29, 7-Hydroxy-3-(3,4-dihydroxyphenyl)-coumarin] was 11.85 ± 0.04 µM; that for `O=c1oc2c(O)cccc2cc1-c1ccc(F)cc1` [Compound 19, 8-Hydroxy-3-(4-fluorophenyl)-coumarin] was 39.1 ± 3.83 µM.
